In the kinase profiling compilation of Christmann-Franck et al. (2016):
Each block holds one compound with its values, some of them ahead of it.

Key:
Test in all cases: KINOMEscan competition binding
Conditions in all cases: compound 10.0 µM
STK32C (human) = STK32C (human) (UniProt Q86UX6)
BMPR2 (human) = BMPR2 (human) (UniProt Q13873)
MELK (human) = MELK (human) (UniProt Q14680)
[1] = tested on: ABL1 (human), P00519 [F317L]
ITK (human) = ITK (human) (UniProt Q08881)
RIOK1 (human) = RIOK1 (human) (UniProt Q9BRS2)
MAP2K2 (human) = MAP2K2 (human) (UniProt P36507)
RPS6KA1 KD1 (human) = RPS6KA1 KD1 (human) (UniProt Q15418)
STK16 (human) = STK16 (human) (UniProt O75716)
MLTK (human) = MLTK (human) (UniProt Q9NYL2)
STK4 (human) = STK4 (human) (UniProt Q13043)
GRK4 (human) = GRK4 (human) (UniProt P32298)
DYRK1B (human) = DYRK1B (human) (UniProt Q9Y463)
TGFBR2 (human) = TGFBR2 (human) (UniProt P37173)
EPHB2 (human) = EPHB2 (human) (UniProt P29323)
[2] = tested on: ABL1 (human), P00519 [H396P]
MYO3B (human) = MYO3B (human) (UniProt Q8WXR4)
MINK1 (human) = MINK1 (human) (UniProt Q8N4C8)
TAOK3 (human) = TAOK3 (human) (UniProt Q9H2K8)
TAOK3 (human), sequence (Q9H2K8 whole entry, looked up): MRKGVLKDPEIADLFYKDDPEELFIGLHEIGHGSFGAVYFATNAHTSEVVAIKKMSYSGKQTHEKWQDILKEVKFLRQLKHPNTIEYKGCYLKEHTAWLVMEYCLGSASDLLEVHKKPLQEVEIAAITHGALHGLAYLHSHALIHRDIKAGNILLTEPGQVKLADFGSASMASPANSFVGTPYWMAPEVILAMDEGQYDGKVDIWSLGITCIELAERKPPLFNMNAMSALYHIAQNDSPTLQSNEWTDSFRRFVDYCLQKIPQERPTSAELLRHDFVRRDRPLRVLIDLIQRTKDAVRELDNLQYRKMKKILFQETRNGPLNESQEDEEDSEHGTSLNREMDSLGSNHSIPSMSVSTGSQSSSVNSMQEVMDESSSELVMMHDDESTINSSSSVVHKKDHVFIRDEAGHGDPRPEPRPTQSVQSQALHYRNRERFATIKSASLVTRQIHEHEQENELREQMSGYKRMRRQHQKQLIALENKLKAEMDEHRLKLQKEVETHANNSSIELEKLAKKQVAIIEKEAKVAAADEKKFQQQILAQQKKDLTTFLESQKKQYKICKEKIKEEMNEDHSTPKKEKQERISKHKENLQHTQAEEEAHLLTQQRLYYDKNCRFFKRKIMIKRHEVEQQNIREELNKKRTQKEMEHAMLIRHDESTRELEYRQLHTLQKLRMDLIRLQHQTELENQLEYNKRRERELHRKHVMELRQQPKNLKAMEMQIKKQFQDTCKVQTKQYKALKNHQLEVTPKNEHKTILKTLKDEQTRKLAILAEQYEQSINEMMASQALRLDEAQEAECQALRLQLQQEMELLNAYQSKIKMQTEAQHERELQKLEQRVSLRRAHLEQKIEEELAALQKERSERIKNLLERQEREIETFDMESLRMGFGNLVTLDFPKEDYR

ICK (human) = ICK (human) (UniProt Q9UPZ9)
ACVRL1 (human) = ACVRL1 (human) (UniProt P37023)
ACVRL1 (human), sequence (P37023 whole entry, looked up): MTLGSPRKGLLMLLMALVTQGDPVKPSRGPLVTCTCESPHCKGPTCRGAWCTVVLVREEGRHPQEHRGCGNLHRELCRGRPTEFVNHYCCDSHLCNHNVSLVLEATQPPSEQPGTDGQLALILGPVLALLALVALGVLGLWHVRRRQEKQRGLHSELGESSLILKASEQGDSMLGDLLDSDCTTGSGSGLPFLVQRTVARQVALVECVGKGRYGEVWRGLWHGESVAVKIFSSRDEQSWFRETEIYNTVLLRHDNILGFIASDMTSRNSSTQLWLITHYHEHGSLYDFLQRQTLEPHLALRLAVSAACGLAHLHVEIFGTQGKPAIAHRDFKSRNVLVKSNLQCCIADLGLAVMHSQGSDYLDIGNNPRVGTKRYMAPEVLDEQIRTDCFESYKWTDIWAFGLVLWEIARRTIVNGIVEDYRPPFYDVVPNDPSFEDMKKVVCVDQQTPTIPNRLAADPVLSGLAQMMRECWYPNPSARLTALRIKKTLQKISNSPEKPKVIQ

PKN2 (human) = PKN2 (human) (UniProt Q16513)
MAPK1 (human) = MAPK1 (human) (UniProt P28482)
MAPK1 (human), sequence (P28482 whole entry, looked up): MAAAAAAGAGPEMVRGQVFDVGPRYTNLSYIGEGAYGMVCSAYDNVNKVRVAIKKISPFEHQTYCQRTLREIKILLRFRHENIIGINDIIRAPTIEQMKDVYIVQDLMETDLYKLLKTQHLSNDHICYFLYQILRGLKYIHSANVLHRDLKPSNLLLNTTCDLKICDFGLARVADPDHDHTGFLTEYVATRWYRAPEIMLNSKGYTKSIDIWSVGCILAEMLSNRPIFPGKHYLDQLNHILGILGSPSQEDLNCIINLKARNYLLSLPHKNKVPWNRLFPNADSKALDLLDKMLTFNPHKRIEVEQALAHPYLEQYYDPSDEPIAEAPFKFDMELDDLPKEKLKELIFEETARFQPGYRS

PRKCD (human) = PRKCD (human) (UniProt Q05655)
HUNK (human) = HUNK (human) (UniProt P57058)
HUNK (human), sequence (P57058 whole entry, looked up): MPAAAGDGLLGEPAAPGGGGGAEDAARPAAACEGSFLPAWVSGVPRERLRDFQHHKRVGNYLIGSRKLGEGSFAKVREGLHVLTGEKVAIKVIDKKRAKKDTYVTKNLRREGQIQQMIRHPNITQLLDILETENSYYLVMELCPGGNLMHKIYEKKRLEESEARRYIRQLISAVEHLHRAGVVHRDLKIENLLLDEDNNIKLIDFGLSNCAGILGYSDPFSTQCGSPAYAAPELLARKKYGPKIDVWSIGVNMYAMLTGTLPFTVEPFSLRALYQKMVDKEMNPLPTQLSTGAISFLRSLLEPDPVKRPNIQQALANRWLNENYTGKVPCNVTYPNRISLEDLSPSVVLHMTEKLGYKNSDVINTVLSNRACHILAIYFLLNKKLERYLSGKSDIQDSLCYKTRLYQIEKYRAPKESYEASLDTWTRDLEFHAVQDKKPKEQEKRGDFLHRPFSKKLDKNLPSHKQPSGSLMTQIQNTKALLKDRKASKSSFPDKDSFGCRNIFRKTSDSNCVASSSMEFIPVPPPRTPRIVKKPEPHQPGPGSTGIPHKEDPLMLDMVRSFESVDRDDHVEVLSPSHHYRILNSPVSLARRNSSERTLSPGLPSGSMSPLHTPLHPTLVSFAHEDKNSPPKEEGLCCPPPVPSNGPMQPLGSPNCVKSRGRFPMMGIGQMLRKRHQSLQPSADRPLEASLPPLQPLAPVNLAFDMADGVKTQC

PTK2B (human) = PTK2B (human) (UniProt Q14289)
PTK2B (human), sequence (Q14289 whole entry, looked up): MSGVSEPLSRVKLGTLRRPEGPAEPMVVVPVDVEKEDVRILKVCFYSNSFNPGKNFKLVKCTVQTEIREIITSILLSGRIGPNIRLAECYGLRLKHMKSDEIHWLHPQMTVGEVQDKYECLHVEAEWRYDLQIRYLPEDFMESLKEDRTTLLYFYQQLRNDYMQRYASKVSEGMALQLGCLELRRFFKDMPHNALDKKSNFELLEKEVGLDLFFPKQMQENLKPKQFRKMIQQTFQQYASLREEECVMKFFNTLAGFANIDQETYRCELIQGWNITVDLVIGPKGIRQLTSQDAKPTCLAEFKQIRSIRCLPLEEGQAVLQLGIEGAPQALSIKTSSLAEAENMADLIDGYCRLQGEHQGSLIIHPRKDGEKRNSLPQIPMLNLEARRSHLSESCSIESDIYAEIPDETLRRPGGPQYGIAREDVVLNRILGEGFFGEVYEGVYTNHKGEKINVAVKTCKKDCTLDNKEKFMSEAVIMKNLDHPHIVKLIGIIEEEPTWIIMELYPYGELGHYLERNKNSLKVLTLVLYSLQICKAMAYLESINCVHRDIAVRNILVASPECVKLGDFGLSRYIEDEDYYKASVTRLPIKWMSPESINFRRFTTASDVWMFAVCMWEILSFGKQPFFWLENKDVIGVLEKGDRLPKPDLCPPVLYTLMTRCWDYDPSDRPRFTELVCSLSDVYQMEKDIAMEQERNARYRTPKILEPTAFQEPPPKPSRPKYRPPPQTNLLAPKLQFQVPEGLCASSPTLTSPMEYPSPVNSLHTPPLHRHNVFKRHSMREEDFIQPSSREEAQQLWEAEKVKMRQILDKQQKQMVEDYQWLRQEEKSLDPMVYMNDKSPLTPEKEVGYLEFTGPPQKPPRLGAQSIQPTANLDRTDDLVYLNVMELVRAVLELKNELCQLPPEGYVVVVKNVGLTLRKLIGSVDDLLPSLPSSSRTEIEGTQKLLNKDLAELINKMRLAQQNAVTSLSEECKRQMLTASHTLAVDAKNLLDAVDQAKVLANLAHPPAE

[3] = tested on: RET (human), P07949 [M918T]
RET (human), P07949 [M918T], sequence (P07949 whole entry M918T, looked up): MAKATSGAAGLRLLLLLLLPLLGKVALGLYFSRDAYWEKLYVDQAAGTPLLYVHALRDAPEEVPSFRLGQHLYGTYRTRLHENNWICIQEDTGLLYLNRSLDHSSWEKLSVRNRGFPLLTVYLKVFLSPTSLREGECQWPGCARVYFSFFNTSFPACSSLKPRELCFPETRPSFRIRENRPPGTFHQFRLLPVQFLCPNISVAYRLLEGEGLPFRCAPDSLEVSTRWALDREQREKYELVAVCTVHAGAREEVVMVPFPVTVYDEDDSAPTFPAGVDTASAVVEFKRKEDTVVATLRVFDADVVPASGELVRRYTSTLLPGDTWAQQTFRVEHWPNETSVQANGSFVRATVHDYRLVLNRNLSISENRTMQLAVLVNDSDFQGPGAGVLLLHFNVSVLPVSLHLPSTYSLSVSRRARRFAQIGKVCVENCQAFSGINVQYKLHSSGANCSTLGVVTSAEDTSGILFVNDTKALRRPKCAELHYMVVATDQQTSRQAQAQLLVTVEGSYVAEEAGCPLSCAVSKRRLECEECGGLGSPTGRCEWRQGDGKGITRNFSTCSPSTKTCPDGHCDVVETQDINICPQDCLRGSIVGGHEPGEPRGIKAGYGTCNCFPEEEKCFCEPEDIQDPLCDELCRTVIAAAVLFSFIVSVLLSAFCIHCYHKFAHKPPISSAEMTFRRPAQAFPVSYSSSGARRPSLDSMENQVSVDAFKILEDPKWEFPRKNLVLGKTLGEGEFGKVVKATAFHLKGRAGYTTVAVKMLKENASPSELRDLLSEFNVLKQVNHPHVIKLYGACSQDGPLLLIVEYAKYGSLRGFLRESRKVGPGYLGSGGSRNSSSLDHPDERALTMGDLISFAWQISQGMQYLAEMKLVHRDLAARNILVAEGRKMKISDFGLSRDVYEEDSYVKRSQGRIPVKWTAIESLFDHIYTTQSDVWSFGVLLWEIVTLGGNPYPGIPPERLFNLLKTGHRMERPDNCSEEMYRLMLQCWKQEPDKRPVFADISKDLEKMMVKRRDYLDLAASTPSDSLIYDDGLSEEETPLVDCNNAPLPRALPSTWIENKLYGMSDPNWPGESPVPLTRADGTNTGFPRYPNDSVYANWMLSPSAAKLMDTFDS

CLK2 (human) = CLK2 (human) (UniProt P49760)
PIK3CA (human) = PIK3CA (human) (UniProt P42336)
ALK (human) = ALK (human) (UniProt Q9UM73)
LIMK2 (human) = LIMK2 (human) (UniProt P53671)
MAP2K3 (human) = MAP2K3 (human) (UniProt P46734)
FRK (human) = FRK (human) (UniProt P42685)
LIMK1 (human) = LIMK1 (human) (UniProt P53667)
RPS6KA6 KD1 (human) = RPS6KA6 KD1 (human) (UniProt Q9UK32)
[4] = tested on: RET (human), P07949 [V804M]
RET (human), P07949 [V804M], sequence (P07949 whole entry V804M, looked up): as the sequence (P07949 whole entry M918T, looked up) above, with V804M, T918M counted along it

TEC (human) = TEC (human) (UniProt P42680)
STK11 (human) = STK11 (human) (UniProt Q15831)
FYN (human) = FYN (human) (UniProt P06241)
CSNK1G1 (human) = CSNK1G1 (human) (UniProt Q9HCP0)
CSNK1G1 (human), sequence (Q9HCP0 whole entry, looked up): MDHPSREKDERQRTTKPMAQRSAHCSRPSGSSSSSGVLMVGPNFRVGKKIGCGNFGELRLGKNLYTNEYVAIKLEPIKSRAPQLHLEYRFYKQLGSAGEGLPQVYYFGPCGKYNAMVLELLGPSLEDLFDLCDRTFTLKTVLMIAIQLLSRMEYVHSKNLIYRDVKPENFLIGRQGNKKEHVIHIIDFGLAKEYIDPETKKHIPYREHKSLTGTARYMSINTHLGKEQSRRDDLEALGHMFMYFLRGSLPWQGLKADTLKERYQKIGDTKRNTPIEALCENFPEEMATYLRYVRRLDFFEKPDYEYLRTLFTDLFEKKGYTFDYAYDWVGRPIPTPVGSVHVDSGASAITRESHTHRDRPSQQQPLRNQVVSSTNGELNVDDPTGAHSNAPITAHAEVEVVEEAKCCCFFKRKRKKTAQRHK

NEK7 (human) = NEK7 (human) (UniProt Q8TDX7)
CSNK2A2 (human) = CSNK2A2 (human) (UniProt P19784)

- kinase still bound, per cent of control (STK32C (human)): 76%
- kinase still bound, per cent of control (BMPR2 (human)): 100%
- kinase still bound, per cent of control (MELK (human)): 63%
- kinase still bound, per cent of control [1]: 100%
- kinase still bound, per cent of control (ITK (human)): 95%
- kinase still bound, per cent of control (RIOK1 (human)): 100%
- kinase still bound, per cent of control (MAP2K2 (human)): 100%
- kinase still bound, per cent of control (RPS6KA1 KD1 (human)): 100%
- kinase still bound, per cent of control (STK16 (human)): 28%
- kinase still bound, per cent of control (MLTK (human)): 100%
- kinase still bound, per cent of control (STK4 (human)): 100%
- kinase still bound, per cent of control (GRK4 (human)): 100%
- kinase still bound, per cent of control (DYRK1B (human)): 100%
- kinase still bound, per cent of control (TGFBR2 (human)): 70%
- kinase still bound, per cent of control (EPHB2 (human)): 15%
- kinase still bound, per cent of control [2]: 75%
- kinase still bound, per cent of control (MYO3B (human)): 100%
- kinase still bound, per cent of control (MINK1 (human)): 86%
- kinase still bound, per cent of control (TAOK3 (human)): 54%
- kinase still bound, per cent of control (ICK (human)): 87%
- kinase still bound, per cent of control (ACVRL1 (human)): 97%
- kinase still bound, per cent of control (PKN2 (human)): 78%
- kinase still bound, per cent of control (MAPK1 (human)): 100%
- kinase still bound, per cent of control (PRKCD (human)): 100%
- kinase still bound, per cent of control (HUNK (human)): 81%
- kinase still bound, per cent of control (PTK2B (human)): 100%
- kinase still bound, per cent of control [3]: 100%
- kinase still bound, per cent of control (CLK2 (human)): 73%
- kinase still bound, per cent of control (PIK3CA (human)): 100%
- kinase still bound, per cent of control (ALK (human)): 100%
- kinase still bound, per cent of control (LIMK2 (human)): 100%
- kinase still bound, per cent of control (MAP2K3 (human)): 100%
- kinase still bound, per cent of control (FRK (human)): 98%
- kinase still bound, per cent of control (LIMK1 (human)): 100%
- kinase still bound, per cent of control (RPS6KA6 KD1 (human)): 100%
- kinase still bound, per cent of control [4]: 96%
- kinase still bound, per cent of control (TEC (human)): 100%
- kinase still bound, per cent of control (STK11 (human)): 83%
- kinase still bound, per cent of control (FYN (human)): 87%
- kinase still bound, per cent of control (CSNK1G1 (human)): 66%
- kinase still bound, per cent of control (NEK7 (human)): 100%
- kinase still bound, per cent of control (CSNK2A2 (human)): 100%
SMILES: COc1ccc(CNC(=O)Nc2ncc([N+](=O)[O-])s2)cc1

- kinase still bound, per cent of control (STK32C (human)): 94%
- kinase still bound, per cent of control (BMPR2 (human)): 100%
- kinase still bound, per cent of control (MELK (human)): 100%
- kinase still bound, per cent of control [1]: 100%
- kinase still bound, per cent of control (ITK (human)): 100%
- kinase still bound, per cent of control (RIOK1 (human)): 79%
- kinase still bound, per cent of control (MAP2K2 (human)): 100%
- kinase still bound, per cent of control (RPS6KA1 KD1 (human)): 58%
- kinase still bound, per cent of control (STK16 (human)): 29%
- kinase still bound, per cent of control (MLTK (human)): 93%
- kinase still bound, per cent of control (STK4 (human)): 62%
- kinase still bound, per cent of control (GRK4 (human)): 100%
- kinase still bound, per cent of control (DYRK1B (human)): 2.2%
- kinase still bound, per cent of control (TGFBR2 (human)): 100%
- kinase still bound, per cent of control (EPHB2 (human)): 100%
- kinase still bound, per cent of control [2]: 90%
- kinase still bound, per cent of control (MYO3B (human)): 100%
- kinase still bound, per cent of control (MINK1 (human)): 60%
- kinase still bound, per cent of control (TAOK3 (human)): 92%
- kinase still bound, per cent of control (ICK (human)): 12%
- kinase still bound, per cent of control (ACVRL1 (human)): 100%
- kinase still bound, per cent of control (PKN2 (human)): 100%
- kinase still bound, per cent of control (MAPK1 (human)): 100%
- kinase still bound, per cent of control (PRKCD (human)): 41%
- kinase still bound, per cent of control (HUNK (human)): 100%
- kinase still bound, per cent of control (PTK2B (human)): 94%
- kinase still bound, per cent of control [3]: 100%
- kinase still bound, per cent of control (CLK2 (human)): 0.45%
- kinase still bound, per cent of control (PIK3CA (human)): 92%
- kinase still bound, per cent of control (ALK (human)): 100%
- kinase still bound, per cent of control (LIMK2 (human)): 96%
- kinase still bound, per cent of control (MAP2K3 (human)): 86%
- kinase still bound, per cent of control (FRK (human)): 100%
- kinase still bound, per cent of control (LIMK1 (human)): 93%
- kinase still bound, per cent of control (RPS6KA6 KD1 (human)): 75%
- kinase still bound, per cent of control [4]: 83%
- kinase still bound, per cent of control (TEC (human)): 84%
- kinase still bound, per cent of control (STK11 (human)): 60%
- kinase still bound, per cent of control (FYN (human)): 96%
- kinase still bound, per cent of control (CSNK1G1 (human)): 81%
- kinase still bound, per cent of control (NEK7 (human)): 89%
- kinase still bound, per cent of control (CSNK2A2 (human)): 99%
SMILES: Cn1cc(C2=C(c3ccc(Cl)cc3Cl)C(=O)NC2=O)c2ccccc21
